pEC50: −log10 of the molar value.
How the values were obtained:
[1] = test system: HCV genotype 1b (Con1) replicon in HUH-7 cells; test: HCV replicon luciferase reporter assay, genotype 1b; type: cell-based; details: Hepatitis C virus, Huh-7, 72 h, HCV genotype 1b replicon luciferase, 3 days incubation, read-out: LE_1b (EC50, range)
In short: (§1)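 Replicon inhibition for both genotypes was measured as Renilla luciferase signal (EnduRen, 7.5 μM final, 2 h) after 3-day, 37° C exposure of replicon-bearing HUH-7 cells in 4% FCS DMEM, 0.5% DMSO. The 1b construct carries S1179I; the 1a H77 construct carries P1496L and S2204I. Twenty-point, 3-fold dilutions were fitted four-parametrically for EC50, and CC50 was taken from multiplexed Cell Titer-Blue.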

[2] = test system: HCV genotype 1a (H77 strain) replicon in HUH-7 cells; test: HCV replicon luciferase reporter assay, genotype 1a; type: cell-based; details: Hepatitis C virus, Huh-7, 72 h, HCV genotype 1a replicon luciferase, 3 days incubation, read-out: LE_1a (EC50, range)
In short: as §1

SMILES: COc1ccc2c(O[C@@H]3C[C@H]4C(=O)N[C@]5(C(=O)NS(=O)(=O)C6CC6)C[C@H]5/C=C\CC[C@H](C)C[C@@H](C)[C@H](NC(=O)NC(C)(C)C)C(=O)N4C3)nc(-c3ccc(OC(C)C)nc3)cc2c1 [Compound 5220, (2R,6S,7R,9S,13aS,14aR,16aS,Z)-6-(3-(tert-butyl)ureido)-N-(cyclopropylsulfonyl)-2-((3-(6-isopropoxypyridin-3-yl)-6-methoxyisoquinolin-1-yl)oxy)-7,9-dimethyl-5,16-dioxo-1,2,3,5,6,7,8,9,10,11,13a,14,14a,15,16,16a-hexadecahydrocyclopropa[e]pyrrolo[1,2-a][1,4]diazacyclopentadecine-14a-carboxamide]
- pEC50 [1]: > 8.26
- pEC50 [2]: > 8.26

SMILES: COc1ccc2c(O[C@@H]3C[C@H]4C(=O)N[C@]5(C(=O)NS(=O)(=O)C6CC6)C[C@H]5/C=C\CC[C@@H](C)C[C@@H](C)[C@H](NC(=O)NC(C)(C)C)C(=O)N4C3)nc(-c3ccc(OC(C)C)nc3)cc2c1 [Compound 5221, (2R,6S,7R,9R,13aS,14aR,16aS,Z)-6-(3-(tert-butyl)ureido)-N-(cyclopropylsulfonyl)-2-((3-(6-isopropoxypyridin-3-yl)-6-methoxyisoquinolin-1-yl)oxy)-7,9-dimethyl-5,16-dioxo-1,2,3,5,6,7,8,9,10,11,13a,14,14a,15,16,16a-hexadecahydrocyclopropa[e]pyrrolo[1,2-a][1,4]diazacyclopentadecine-14a-carboxamide]
- pEC50 [1]: > 8.26
- pEC50 [2]: > 8.26

SMILES: COc1ccc2c(O[C@@H]3C[C@H]4C(=O)N[C@]5(C(=O)NS(=O)(=O)C6(C)CC6)C[C@H]5/C=C\CC[C@H](C)C[C@@H](C)[C@H](NC(=O)OC(C)(C)C)C(=O)N4C3)nc(-c3ccc(OC(C)C)nc3)cc2c1 [Compound 5222, tert-butyl ((2R,6S,7R,9S,13aS,14aR,16aS,Z)-2-((3-(6-isopropoxypyridin-3-yl)-6-methoxyisoquinolin-1-yl)oxy)-7,9-dimethyl-14a-(((1-methylcyclopropyl)sulfonyl)carbamoyl)-5,16-dioxo-1,2,3,5,6,7,8,9,10,11,13a,14,14a,15,16,16a-hexadecahydrocyclopropa[e]pyrrolo[1,2-a][1,4]diazacyclopentadecin-6-yl)carbamate]
- pEC50 [1]: > 8.26
- pEC50 [2]: 6.99 to 8.32

SMILES: COc1ccc2c(O[C@@H]3C[C@H]4C(=O)N[C@]5(C(=O)NS(=O)(=O)C6(C)CC6)C[C@H]5/C=C\CC[C@@H](C)C[C@@H](C)[C@H](NC(=O)OC(C)(C)C)C(=O)N4C3)nc(-c3ccc(OC(C)C)nc3)cc2c1 [Compound 5223, tert-butyl ((2R,6S,7R,9R,13aS,14aR,16aS,Z)-2-((3-(6-isopropoxypyridin-3-yl)-6-methoxyisoquinolin-1-yl)oxy)-7,9-dimethyl-14a-(((1-methylcyclopropyl)sulfonyl)carbamoyl)-5,16-dioxo-1,2,3,5,6,7,8,9,10,11,13a,14,14a,15,16,16a-hexadecahydrocyclopropa[e]pyrrolo[1,2-a][1,4]diazacyclopentadecin-6-yl)carbamate]
- pEC50 [1]: > 8.26
- pEC50 [2]: > 8.26

SMILES: COc1ccc2c(O[C@@H]3C[C@H]4C(=O)N[C@]5(C(=O)NS(=O)(=O)C6(C)CC6)C[C@H]5/C=C\CC[C@H](C)C[C@@H](C)[C@H](NC(=O)OC(C)(C)C(F)(F)F)C(=O)N4C3)nc(-c3ccc(OC(C)C)nc3)cc2c1 [Compound 5224, 1,1,1-trifluoro-2-methylpropan-2-yl((2R,6S,7R,9S,13aS,14aR,16aS,Z)-2-((3-(6-isopropoxypyridin-3-yl)-6-methoxyisoquinolin-1-yl)oxy)-7,9-dimethyl-14a-(((1-methylcyclopropyl)sulfonyl)carbamoyl)-5,16-dioxo-1,2,3,5,6,7,8,9,10,11,13a,14,14a,15,16,16a-hexadecahydrocyclopropa[e]pyrrolo[1,2-a][1,4]diazacyclopentadecin-6-yl)carbamate]
- pEC50 [1]: 6.99 to 8.32
- pEC50 [2]: 6.99 to 8.32

SMILES: COc1ccc2c(O[C@@H]3C[C@H]4C(=O)N[C@]5(C(=O)NS(=O)(=O)C6(C)CC6)C[C@H]5/C=C\CC[C@@H](C)C[C@@H](C)[C@H](NC(=O)OC(C)(C)C(F)(F)F)C(=O)N4C3)nc(-c3ccc(OC(C)C)nc3)cc2c1 [Compound 5225, 1,1,1-trifluoro-2-methylpropan-2-yl((2R,6S,7R,9R,13aS,14aR,16aS,Z)-2-((3-(6-isopropoxypyridin-3-yl)-6-methoxyisoquinolin-1-yl)oxy)-7,9-dimethyl-14a-(((1-methylcyclopropyl)sulfonyl)carbamoyl)-5,16-dioxo-1,2,3,5,6,7,8,9,10,11,13a,14,14a,15,16,16a-hexadecahydrocyclopropa[e]pyrrolo[1,2-a][1,4]diazacyclopentadecin-6-yl)carbamate]
- pEC50 [1]: > 8.26
- pEC50 [2]: > 8.26

SMILES: [2H]C([2H])([2H])C(OC(=O)N[C@@H]1C(=O)N2C[C@H](Oc3nc(-c4ccc(OC(C)C)nc4)cc4cc(OC)ccc34)C[C@H]2C(=O)N[C@]2(C(=O)NS(=O)(=O)C3(C)CC3)C[C@H]2/C=C\CC[C@H](C)C[C@H]1C)(C([2H])([2H])[2H])C(F)(F)F [Compound 5226, 1,1,1,3,3,3-hexadeutero-2-(trifluoromethyl)propan-2-yl((2R,6S,7R,9S,13aS,14aR,16aS,Z)-2-((3-(6-isopropoxypyridin-3-yl)-6-methoxyisoquinolin-1-yl)oxy)-7,9-dimethyl-14a-(((1-methylcyclopropyl)sulfonyl)carbamoyl)-5,16-dioxo-1,2,3,5,6,7,8,9,10,11,13a,14,14a,15,16,16a-hexadecahydrocyclopropa[e]pyrrolo[1,2-a][1,4]diazacyclopentadecin-6-yl)carbamate]
- pEC50 [1]: 6.99 to 8.32
- pEC50 [2]: 6.99 to 8.32

SMILES: [2H]C([2H])([2H])C(OC(=O)N[C@@H]1C(=O)N2C[C@H](Oc3nc(-c4ccc(OC(C)C)nc4)cc4cc(OC)ccc34)C[C@H]2C(=O)N[C@]2(C(=O)NS(=O)(=O)C3(C)CC3)C[C@H]2/C=C\CC[C@@H](C)C[C@H]1C)(C([2H])([2H])[2H])C(F)(F)F [Compound 5227, 1,1,1,3,3,3-hexadeutero-2-(trifluoromethyl)propan-2-yl((2R,6S,7R,9R,13aS,14aR,16aS,Z)-2-((3-(6-isopropoxypyridin-3-yl)-6-methoxyisoquinolin-1-yl)oxy)-7,9-dimethyl-14a-(((1-methylcyclopropyl)sulfonyl)carbamoyl)-5,16-dioxo-1,2,3,5,6,7,8,9,10,11,13a,14,14a,15,16,16a-hexadecahydrocyclopropa[e]pyrrolo[1,2-a][1,4]diazacyclopentadecin-6-yl)carbamate]
- pEC50 [1]: > 8.26
- pEC50 [2]: > 8.26

SMILES: COc1ccc2c(O[C@@H]3C[C@H]4C(=O)N[C@]5(C(=O)NS(=O)(=O)C6(C)CC6)C[C@H]5/C=C\CC[C@H](C)C[C@@H](C)[C@H](NC(=O)OC5C[C@@H]6C[C@@H]6C5)C(=O)N4C3)nc(-c3ccc(OC(C)C)nc3)cc2c1 (stereo partly drawn) [Compound 5228, (1R,3r,5S)-bicyclo[3.1.0]hexan-3-yl((2R,6S,7R,9S,13aS,14aR,16aS,Z)-2-((3-(6-isopropoxypyridin-3-yl)-6-methoxyisoquinolin-1-yl)oxy)-7,9-dimethyl-14a-(((1-methylcyclopropyl)sulfonyl)carbamoyl)-5,16-dioxo-1,2,3,5,6,7,8,9,10,11,13a,14,14a,15,16,16a-hexadecahydrocyclopropa[e]pyrrolo[1,2-a][1,4]diazacyclopentadecin-6-yl)carbamate]
- pEC50 [1]: > 8.26
- pEC50 [2]: 6.99 to 8.32

SMILES: COc1ccc2c(O[C@@H]3C[C@H]4C(=O)N[C@]5(C(=O)NS(=O)(=O)C6(C)CC6)C[C@H]5/C=C\CC[C@@H](C)C[C@@H](C)[C@H](NC(=O)OC5C[C@@H]6C[C@@H]6C5)C(=O)N4C3)nc(-c3ccc(OC(C)C)nc3)cc2c1 (stereo partly drawn) [Compound 5229, (1R,3r,5S)-bicyclo[3.1.0]hexan-3-yl((2R,6S,7R,9R,13aS,14aR,16aS,Z)-2-((3-(6-isopropoxypyridin-3-yl)-6-methoxyisoquinolin-1-yl)oxy)-7,9-dimethyl-14a-(((1-methylcyclopropyl)sulfonyl)carbamoyl)-5,16-dioxo-1,2,3,5,6,7,8,9,10,11,13a,14,14a,15,16,16a-hexadecahydrocyclopropa[e]pyrrolo[1,2-a][1,4]diazacyclopentadecin-6-yl)carbamate]
- pEC50 [1]: > 8.26
- pEC50 [2]: > 8.26

SMILES: COc1ccc2c(O[C@@H]3C[C@H]4C(=O)N[C@]5(C(=O)NS(=O)(=O)C6(C)CC6)C[C@H]5/C=C\CC[C@H](C)C[C@@H](C)[C@H](NC(=O)NC(C)(C)C)C(=O)N4C3)nc(-c3ccc(OC(C)C)nc3)cc2c1 [Compound 5230, (2R,6S,7R,9S,13aS,14aR,16aS,Z)-6-(3-(tert-butyl)ureido)-2-((3-(6-isopropoxypyridin-3-yl)-6-methoxyisoquinolin-1-yl)oxy)-7,9-dimethyl-N-((1-methylcyclopropyl)sulfonyl)-5,16-dioxo-1,2,3,5,6,7,8,9,10,11,13a,14,14a,15,16,16a-hexadecahydrocyclopropa[e]pyrrolo[1,2-a][1,4]diazacyclopentadecine-14a-carboxamide]
- pEC50 [1]: > 8.26
- pEC50 [2]: 6.99 to 8.32

SMILES: COc1ccc2c(O[C@@H]3C[C@H]4C(=O)N[C@]5(C(=O)NS(=O)(=O)C6(C)CC6)C[C@H]5/C=C\CC[C@@H](C)C[C@@H](C)[C@H](NC(=O)NC(C)(C)C)C(=O)N4C3)nc(-c3ccc(OC(C)C)nc3)cc2c1 [Compound 5231, (2R,6S,7R,9R,13aS,14aR,16aS,Z)-6-(3-(tert-butyl)ureido)-2-((3-(6-isopropoxypyridin-3-yl)-6-methoxyisoquinolin-1-yl)oxy)-7,9-dimethyl-N-((1-methylcyclopropyl)sulfonyl)-5,16-dioxo-1,2,3,5,6,7,8,9,10,11,13a,14,14a,15,16,16a-hexadecahydrocyclopropa[e]pyrrolo[1,2-a][1,4]diazacyclopentadecine-14a-carboxamide]
- pEC50 [1]: > 8.26
- pEC50 [2]: > 8.26

— patent US9499550B2 (BRISTOL-MYERS SQUIBB COMPANY, priority 2012, dated 2016)
